Measurements published in US10533010B2, “Substituted indole Mcl-1 inhibitors” (Vanderbilt University, priority 2014, dated 2020).
Read-outs that look alike come from different tables or passages of the source.

Molecular target: recombinant Mcl-1 (residues 172-327) (Homo sapiens (Human), UniProt Q07820)
Assay: Fluorescence polarization anisotropy competition assay (FITC-Bak or FITC-Bim BH3 peptide) with Mcl-1
Format: binding
Conditions: Table 2, FITC-Bak or FITC-Bim peptide competition, Ki converted from IC50, read-out: Ki for Inhibition of Mcl-1

Sequence of recombinant Mcl-1 (residues 172-327) (Q07820 172-327): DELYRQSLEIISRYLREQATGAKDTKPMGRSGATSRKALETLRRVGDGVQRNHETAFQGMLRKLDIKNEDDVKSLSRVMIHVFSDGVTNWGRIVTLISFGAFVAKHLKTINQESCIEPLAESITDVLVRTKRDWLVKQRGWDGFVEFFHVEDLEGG

| SMILES | Ki (Ki bins given in nM) [nM] | Ki (Ki bins given in μM) [nM] |
| --- | --- | --- |
| Cc1cc(OCCCc2c(C(=O)Nc3ccc(C(=O)O)c(N4CCN(C)CC4)c3)[nH]c3c(-c4c(C)nn(C)c4C)c(Cl)ccc23)cc(C)c1Cl [I-90, 4-(6-chloro-3-(3-(4-chloro-3,5-dimethylphenoxy)propyl)-7-(1,3,5-trimethyl-1H-pyrazol-4-yl)-1H-indole-2-carboxamido)-2-(4-methylpiperazin-1-yl)benzoic acid] | < 50 | – |
| Cc1cc(OCCCc2c3n(c4c(-c5c(C)nn(C)c5C)c(Cl)ccc24)CCCN(Cc2cc(C(=O)O)cc(N(C(=O)CC(C)C)C(=O)CC(C)C)c2)C3=O)cc(C)c1Cl [I-329, 3-((8-chloro-11-(3-(4-chloro-3,5-dimethylphenoxy)propyl)-1-oxo-7-(1,3,5-trimethyl-1H-pyrazol-4-yl)-4,5-dihydro-1H-[1,4]diazepino[1,2-a]indol-2(3H)-yl)methyl)-5-(3-methyl-N-(3-methylbutanoyl)butanamido)benzoic acid] | < 50 | – |
| Cc1cc(OCCCc2c(C(=O)NCCC(=O)O)[nH]c3c(-c4c(C)n[nH]c4C)cccc23)cc(C)c1Cl [I-23, 3-(3-(3-(4-chloro-3,5-dimethylphenoxy)propyl)-7-(3,5-dimethyl-1H-pyrazol-4-yl)-1H-indole-2-carboxamido)propanoic acid] | < 50 | – |
| Cc1cc(OCCCc2c(C(=O)NCC(=O)NS(=O)(=O)c3ccc4ccccc4c3)[nH]c3ccccc23)cc(C)c1Cl [I-7, 3-(3-(4-chloro-3,5-dimethylphenoxy)propyl)-N-(2-(naphthalene-2-sulfonamido)-2-oxoethyl)-1H-indole-2-carboxamide] | 101 to 299 | – |
| Cc1cc(OCCCc2c(C(=O)NCCC(=O)NS(=O)(=O)c3ccc4ccccc4c3)[nH]c3ccccc23)cc(C)c1Cl [I-16, 3-(3-(4-chloro-3,5-dimethylphenoxy)propyl)-N-(3-(naphthalene-2-sulfonamido)-3-oxopropyl)-1H-indole-2-carboxamide] | 101 to 299 | – |
| Cc1cc(OCCCc2c(C(=O)N3CCN(c4ccccc4)CC3)[nH]c3ccccc23)cc(C)c1Cl [I-46, (3-(3-(4-chloro-3,5-dimethylphenoxy)propyl)-1H-indol-2-yl)(4-phenylpiperazin-1-yl)methanone] | – | 1000 to 9990 |
| Cc1cc(OCCCc2c(C(=O)NCCC(=O)NS(=O)(=O)c3cccc(C#N)c3)[nH]c3ccccc23)cc(C)c1Cl [I-19, 3-(3-(4-chloro-3,5-dimethylphenoxy)propyl)-N-(3-((3-cyanophenyl)sulfonamido)-3-oxopropyl)-1H-indole-2-carboxamide] | 101 to 299 | – |
| Cc1cc(OCCCc2c3n(c4c(-c5c(C)nn(C)c5C)c(Cl)ccc24)C(C)CN(Cc2cccc(C(=O)O)c2)C3=O)cc(C)c1Cl (centres unmarked) [I-131, 3-((7-chloro-10-(3-(4-chloro-3,5-dimethylphenoxy)propyl)-4-methyl-1-oxo-6-(1,3,5-trimethyl-1H-pyrazol-4-yl)-3,4-dihydropyrazino[1,2-a]indol-2(1H)-yl)methyl)benzoic acid] | < 50 | – |
| Cc1cc(OCCCc2c(C(=O)NCc3cccc(C(=O)O)c3)[nH]c3c(-c4c(C)n[nH]c4C)cccc23)cc(C)c1Cl [I-25a, 3-((3-(3-(4-chloro-3,5-dimethylphenoxy)propyl)-7-(3,5-dimethyl-1H-pyrazol-4-yl)-1H-indole-2-carboxamido)methyl)benzoic acid] | < 50 | – |
| Cc1cc(OCCCc2c(C(=O)NCCC(=O)NS(=O)(=O)c3ccc([N+](=O)[O-])cc3)[nH]c3ccccc23)cc(C)c1Cl [I-22, 3-(3-(4-chloro-3,5-dimethylphenoxy)propyl)-N-(3-((4-nitrophenyl)sulfonamido)-3-oxopropyl)-1H-indole-2-carboxamide] | 101 to 299 | – |
| Cc1cc(OCCCc2c(C(=O)NCc3cccn3CC(=O)O)[nH]c3c(-c4c(C)nn(C)c4C)cccc23)cc(C)c1Cl [I-89, 2-(2-((3-(3-(4-chloro-3,5-dimethylphenoxy)propyl)-7-(1,3,5-trimethyl-1H-pyrazol-4-yl)-1H-indole-2-carboxamido)methyl)-1H-pyrrol-1-yl)acetic acid] | < 50 | – |
| Cc1cc(OCCCc2c3n(c4c(-c5c(C)nn(C)c5C)cccc24)CCCN(Cc2cc(C(=O)O)n(Cc4ccccc4)c2)C3=O)cc(C)c1Cl [I-77, 1-benzyl-4-((1-(3-(4-chloro-3,5-dimethylphenoxy)propyl)-1-oxo-7-(1,3,5-trimethyl-1H-pyrazol-4-yl)-4,5-dihydro-1H-[1,4]diazepino[1,2-a]indol-2(3H)-yl)methyl)-1H-pyrrole-2-carboxylic acid] | 51 to 100 | – |
| Cc1cc(OCCCc2c3n(c4c(-c5c(C)nn(C)c5C)c(Cl)ccc24)CCCN(CCc2ccccc2C(=O)O)C3=O)cc(C)c1Cl [I-294, 2-(2-(8-chloro-11-(3-(4-chloro-3,5-dimethylphenoxy)propyl)-1-oxo-7-(1,3,5-trimethyl-1H-pyrazol-4-yl)-4,5-dihydro-1H-[1,4]diazepino[1,2-a]indol-2(3H)-yl)ethyl)benzoic acid] | < 50 | – |
| Cc1cc(OCCCc2c(C(=O)NCc3ccc(N4CCCCC4)c(C(=O)O)c3)[nH]c3c(-c4c(C)nn(C)c4C)cccc23)cc(C)c1Cl [I-73, 5-((3-(3-(4-chloro-3,5-dimethylphenoxy)propyl)-7-(1,3,5-trimethyl-1H-pyrazol-4-yl)-1H-indole-2-carboxamido)methyl)-2-(piperidin-1-yl)benzoic acid] | 301 to 500 | – |

Second part, led by results:

| Ki (Ki bins given in nM) [nM] | SMILES | Ki (Ki bins given in μM) [nM] |
| --- | --- | --- |
| < 50 | Cc1cc(OCCCc2c(C(=O)Nc3ccc(C(=O)O)c(N4CCOCC4)c3)[nH]c3c(-c4c(C)nn(C)c4C)c(Cl)ccc23)cc(C)c1Cl [I-91, 4-(6-chloro-3-(3-(4-chloro-3,5-dimethylphenoxy)propyl)-7-(1,3,5-trimethyl-1H-pyrazol-4-yl)-1H-indole-2-carboxamido)-2-morpholinobenzoic acid] | – |
| < 50 | Cc1cc(OCCCc2c3n(c4c(-c5c(C)nn(C)c5C)c(Cl)ccc24)[C@H](C)CN(c2cccc(C(=O)O)c2)C3=O)cc(C)c1Cl [I-171, (R)-3-(7-chloro-10-(3-(4-chloro-3,5-dimethylphenoxy)propyl)-4-methyl-1-oxo-6-(1,3,5-trimethyl-1H-pyrazol-4-yl)-3,4-dihydropyrazino[1,2-a]indol-2(1H)-yl)benzoic acid] | – |
| < 50 | Cc1cc(OCCCc2c3n(c4c(-c5c(C)nn(C)c5C)c(Cl)ccc24)CCCN(C[C@H]2CC[C@H](C(=O)O)CC2)C3=O)cc(C)c1Cl [I-371, (1r,4r)-4-((8-chloro-11-(3-(4-chloro-3,5-dimethylphenoxy)propyl)-1-oxo-7-(1,3,5-trimethyl-1H-pyrazol-4-yl)-4,5-dihydro-1H-[1,4]diazepino[1,2-a]indol-2(3H)-yl)methyl)cyclohexane-1-carboxylic acid] | – |
| < 50 | Cc1cc(OCCCc2c3n(c4c(-c5c(C)nn(C)c5C)c(Cl)ccc24)C[C@@H](C)N(c2cccc(C(=O)O)c2)C3=O)cc(C)c1Cl [I-157, (R)-3-(7-chloro-10-(3-(4-chloro-3,5-dimethylphenoxy)propyl)-3-methyl-1-oxo-6-(1,3,5-trimethyl-1H-pyrazol-4-yl)-3,4-dihydropyrazino[1,2-a]indol-2(1H)-yl)benzoic acid] | – |
| < 50 | Cc1cc(OCCCc2c3n(c4c(-c5c(C)nn(C)c5C)c(Cl)ccc24)C(C)CN(Cc2ccc(C(=O)O)cc2)C3=O)cc(C)c1Cl (centres unmarked) [I-130, 4-((7-chloro-10-(3-(4-chloro-3,5-dimethylphenoxy)propyl)-4-methyl-1-oxo-6-(1,3,5-trimethyl-1H-pyrazol-4-yl)-3,4-dihydropyrazino[1,2-a]indol-2(1H)-yl)methyl)benzoic acid] | – |
| < 50 | Cc1cc(OCCCc2c(C(=O)NCC(=O)N[C@@H](Cc3ccccc3)C(=O)O)[nH]c3c(-c4c(C)nn(C)c4C)cccc23)cc(C)c1Cl [I-291, (3-(3-(4-chloro-3,5-dimethylphenoxy)propyl)-7-(1,3,5-trimethyl-1H-pyrazol-4-yl)-1H-indole-2-carbonyl)glycyl-L-phenylalanine] | – |
| < 50 | Cc1cc(OCCCc2c3n(c4c(-c5c(C)nn(C)c5C)c(Cl)ccc24)CCCN(c2ccc(C(=O)O)c(C(F)(F)F)c2)C3=O)cc(C)c1Cl [I-93, 4-(8-chloro-11-(3-(4-chloro-3,5-dimethylphenoxy)propyl)-1-oxo-7-(1,3,5-trimethyl-1H-pyrazol-4-yl)-4,5-dihydro-1H-[1,4]diazepino[1,2-a]indol-2(3H)-yl)-2-(trifluoromethyl)benzoic acid] | – |
| < 50 | Cc1cc(OCCCc2c3n(c4c(-c5c(C)nn(C)c5C)c(Cl)ccc24)C(C)CCNC3=O)cc(C)c1Cl (centres unmarked) [I-116, 8-chloro-1-(3-(4-chloro-3,5-dimethylphenoxy)propyl)-5-methyl-7-(1,3,5-trimethyl-1H-pyrazol-4-yl)-2,3,4,5-tetrahydro-1H-[1,4]diazepino[1,2-a]indol-1-one] | – |
| < 50 | Cc1cc(OCCCc2c(C(=O)Nc3ccnc(C(=O)O)c3)[nH]c3c(-c4c(C)nn(C)c4C)c(Cl)ccc23)cc(C)c1Cl [I-180, 4-(6-chloro-3-(3-(4-chloro-3,5-dimethylphenoxy)propyl)-7-(1,3,5-trimethyl-1H-pyrazol-4-yl)-1H-indole-2-carboxamido)picolinic acid] | – |
| < 50 | Cc1cc(OCCCc2c(C(=O)Nc3ccc(C(=O)O)nc3)[nH]c3c(-c4c(C)nn(C)c4C)c(Cl)ccc23)cc(C)c1Cl [I-185, 5-(6-chloro-3-(3-(4-chloro-3,5-dimethylphenoxy)propyl)-7-(1,3,5-trimethyl-1H-pyrazol-4-yl)-1H-indole-2-carboxamido)picolinic acid] | – |
| < 50 | Cc1cc(OCCCc2c(C(=O)NCC(=O)NCC(=O)O)[nH]c3c(-c4c(C)nn(C)c4C)cccc23)cc(C)c1Cl [I-290, (3-(3-(4-chloro-3,5-dimethylphenoxy)propyl)-7-(1,3,5-trimethyl-1H-pyrazol-4-yl)-1H-indole-2-carbonyl)glycylglycine] | – |
| < 50 | Cc1cc(OCCCc2c(C(=O)Nc3cc(C(=O)O)cc(N(C)C)c3)[nH]c3c(-c4c(C)nn(C)c4C)c(Cl)ccc23)cc(C)c1Cl [I-215, 3-(6-chloro-3-(3-(4-chloro-3,5-dimethylphenoxy)propyl)-7-(1,3,5-trimethyl-1H-pyrazol-4-yl)-1H-indole-2-carboxamido)-5-(dimethylamino)benzoic acid] | – |
